Experimental findings from paper PMC5409245, “An albumin-based tumor-targeted oxaliplatin prodrug with distinctly improved anticancer activity in vivo” (Chemical Science, 2016) are described below.

Data set [1] concerns subcutaneous CT-26 tumors.
Procedure: Mice were treated twice a week (Monday and Thursday) i.v. with concentrations equimolar to 9 mg kg^–1 oxaliplatin (each experimental group contained four animals). […] The experiment was performed twice with two different endpoints: overall survival vs. tissue collection 12 days after the first treatment. […] Data are means ± SEM.
CT-26 cells (5x105 in serum-free medium) were injected subcutaneously into the right flank
of Balb/c mice (gender is indicated in the respective figure). Animals were treated with the
indicated oxaliplatin-releasing drugs at concentrations equimolar to 9 mg/kg oxaliplatin (i.v.;
12 was dissolved in 0.9% NaCl solution, 11 in 10% propylene glycol/0.9% NaCl, and
oxaliplatin in 5% glucose solution according to the clinical protocol) twice a week (Mondays
and Thursdays). In case of cisplatin-releasing prodrugs, a dose equimolar to 3 mg/kg cisplatin
was applied twice a week. For all experiments four animals per treatment group were used.
Animals were controlled for distress development every day and tumor size was assessed
regularly by caliper measurement. Tumor volume was calculated using the formula: (length ×
width2). The experiments with oxaliplatin, 11 and 12 in male mice were performed twice
with two different endpoints: 1) overall survival and 2) collection of organ and tumor
In the second experiments, tumors were
formalin-fixed and paraffin-embedded.
Results were analyzed and illustrated and statistical analyses performed (as indicated) with
GraphPad Prism (GraphPad Software version 5,San Diego, CA).
In a further data set the test system is CT-26 tumors. Briefly: Histological evaluation (H/E) of apoptotic and mitotic cell fractions in CT-26 tumors. The class given is in vivo, BALB/c mice. Particulars: tumors of male mice, day 12, H/E stain, counting. The protocol:
In order to better understand the observed differences in the activity of our compound panel, in a second experiment male CT-26-bearing animals were sacrificed on day 12 (24 h after the last treatment) and paraffin-embedded tumors were evaluated by H/E stain. […] In addition, as depicted in Fig. 5, the tumors of mice treated with 12 were clearly smaller than the ones of the other treatment groups. […] Furthermore, the histological evaluation of tumor material was only possible for 3 animals because the fourth mouse already experienced a complete remission at time of section (which means that the best responding animal was not available for evaluation). […]
mice was performed only with the endpoint overall survival. For cisplatin and 8, the […]
was performed. […]
experimental group contained four animals). Tumor volumes were calculated as described in the experimental part. […]
Figure S5: Apoptosis and mitosis levels in tumors after the treatment with compound 8, 11 and 12 in comparison to cis- and oxaliplatin: CT-26 cells were injected subcutaneously into the right flank of male BALB/c mice. […] The fractions of apoptotic and mitotic cells were evaluated by counting (4 pictures per sample, at least 300 cells per picture were counted). […]
The statistical significance was calculated by One-Way Anova and is indicated with asterisks (* P < 0.05; ** P < 0.01; *** P < 0.001).

[2] abbreviates: female BALB/c mice, 9 mg kg^–1 i.v. twice a week.

Turning to `O=C1[O][Pt]2([NH][C@@H]3CCCC[C@H]3[NH]2)[O]C1=O` [oxaliplatin], in data set [1] (setting [2]), the adverse effects entry is listed as “very strong adverse effects” and the anticancer activity entry is reported as “widely ineffective”. Further, the onset of activity in data set [1] (male BALB/c mice, i.v. twice a week, equimolar to 9 mg kg^–1 oxaliplatin) was 8 days. Also, in the data set on CT-26 tumors, the “apoptotic cell fraction in tumors” value was “highest”.
